In patent publication US3939270A, “Pharmaceutical preparations containing α-aminopenicillins” (priority 1970, dated 1976):
≈ marks a conversion by molar mass, not a printed value.

How the values were obtained:
[1] = system: Staph. aureus Oxford; test: growth inhibition of Staph. aureus Oxford (Examples); type: cell-based; settings: for MIC: Staphylococcus aureus, read-out: inhibited the growth of Staph. aureus Oxford at a concentration of
[2] = hydrolysis of esters in phosphate buffer; type: in vitro ADME; settings: pH 7.4, 10 μg/ml, 30 min, 37°C, corrected for blank, read-out: % hydrolyzed after 30 min at 37°C, phosphate buffer
Method: (§1) The hydrolysis of the esters of the aminopenicillins prepared according to the invention were determined in buffer solution with and without human serum being present. The esters were incubated for 30 min at 37°C at a concentration of 10 μg/ml in Sorensen's phosphate buffer (pH 7.4) and in another experiment in the same buffer containing 10 % human serum. The test solutions were extracted with ethyl acetate to remove unhydrolyzed ester and were analyzed microbiologically for their contents of aminopenicillin. Blank values were obtained by dissolving the esters in phosphate buffer at the same concentration and immediately perform the extraction. The values in the table are corrected for the blank values.

[3] = hydrolysis of esters in phosphate buffer + 10% human serum; type: in vitro ADME; settings: buffer with 10% serum; pH 7.4, 10% human serum, 10 μg/ml, 30 min, 37°C, corrected for blank; read-out: % hydrolyzed after 30 min at 37°C, phosphate buffer + 10% human serum
Method: as §1

[4] = system: Staph.aur. Oxford; test: antibacterial activity, tube dilution procedure in broth, Staph. aureus Oxford; type: cell-based; settings: Staphylococcus aureus
Excerpt: (§2) (termination of concentration according to the hydroxamate method; antibacterial activity determined by tube dilution procedure in broth).

[5] = system: E.coli; test: antibacterial activity, tube dilution procedure in broth, E. coli; type: cell-based; settings: Escherichia coli
Excerpt: as §2

[6] = system: P.mirabilis; test: antibacterial activity, tube dilution procedure in broth, P. mirabilis; type: cell-based; settings: Proteus mirabilis
Excerpt: as §2

[7] = background statement on α-aminobenzylpenicillin; cited from earlier work
[8] = system: E. coli; test: growth inhibition of E. coli (Example 7a); type: cell-based; settings: Escherichia coli; read-out: inhibited the growth of E. coli at
[9] = system: P. mirabilis; test: growth inhibition of P. mirabilis (Example 7a); type: cell-based; settings: Proteus mirabilis; read-out: inhibited the growth of P. mirabilis at
[10] = human, in vivo, po, 480 min
Method: The oral absorption of 1'-ethoxycarbonyloxyethyl 6-(D-α-aminophenylacetamino)penicillanate (I) and of 1'-acetoxyethyl6-(D-α-aminophenylacetamido)penicillanate (II) was studied in a cross-over experiment in 9 healthy male volunteers using 6-(D-α-aminophenylacetamido)penicillanic acid (ampicillin) as a reference. The compounds were administered in tablets with the following composition:
The amounts of the esters correspond to 250 mg of free ampicillin. The reference compound was given in a commercially available tablet (Doktacillin 0.25 g) containing 250 mg of free ampicillin. The tablets were taken on an empty stomach. Blood samples were drawn at preset intervals and analyzed for their contents of ampicillin using a microbiological essay. The following mean serum levels (in μg/ml) with standard error of the mean were found:
The mean cumulative urinary excretions after 8 hours in percentage of the dose given were: […]

[11] = system: Staph. aureus Oxford; test: growth inhibition of Staph. aureus Oxford, solution test on agar; type: cell-based; settings: Staphylococcus aureus, read-out: inhibited the growth of Staph. Aureus Oxford at a concentration of
Method: (§3) The product inhibited the growth of Staph. Aureus Oxford at a concentration of 0.13 μg/ml and of E.coliat 125 μg/ml (solution test on agar) and contained in its IR-spectrum a strong absorption band at 1750 cm^-^1 showing presence of a β-lactame and an ester function.

[12] = system: E.coli; test: growth inhibition of E. coli, solution test on agar; type: cell-based; settings: Escherichia coli, read-out: inhibited the growth of E.coli at
Method: as §3

Row | SMILES | MIC [1] [µg/mL] | degraded at 0.5 h [2] [%] | metabolised at 0.5 h [3] [%] | also measured
1 | CC(=O)OC(C)OC(=O)[C@@H]1N2C(=O)[C@@H](NC(=O)[C@H](N)c3ccc(F)cc3)[C@H]2SC1(C)C (stereo partly drawn) [Example 24, 1'-Acetoxyethyl 6-(D-α-amino-p-fluorophenylacetamido)penicillanate] | 0.25 (≈ 0.551 µM) | 9 | 14.3 | –
2 | CC(OC(=O)C(C)C)OC(=O)[C@@H]1N2C(=O)[C@@H](NC(=O)[C@H](N)c3ccccc3)[C@H]2SC1(C)C (stereo partly drawn) [10 --CH--OCOCH(CH3)2, 1'-isobutyroxy-ethyl 6-(D-α-aminophenylacetamido)penicillanate] | – | 5.2 | 12.1 | –
3 | CCOC(=O)OC(C)OC(=O)[C@@H]1N2C(=O)[C@@H](NC(=O)[C@H](N)c3cccc(F)c3)[C@H]2SC1(C)C (stereo partly drawn) [Example 23, 1'-Ethyloxycarbonyloxyethyl 6-(D-α-amino-m-fluorophenylacetamido)penicillanate] | – | 2.6 | 37.7 | –
4 | COC(=O)OCOC(=O)[C@@H]1N2C(=O)[C@@H](NC(=O)[C@H](N)c3ccccc3)[C@H]2SC1(C)C [Example 12, Methoxycarbonyloxymethyl 6-(D-α-aminophenylacetamido) penicillanate] | 0.13 (≈ 0.297 µM) | 24.8 | 77.9 | MIC [4]: 0.16 µg/mL (≈ 0.366 µM); MIC [5]: 25 µg/mL (≈ 57.1 µM); MIC [6]: 6.25 µg/mL (≈ 14.3 µM)
5 | CCOC(=O)OC(C)OC(=O)[C@@H]1N2C(=O)[C@@H](NC(=O)[C@H](N)c3ccc(F)cc3)[C@H]2SC1(C)C (stereo partly drawn) [Example 25, 1'-Ethyloxycarbonyloxyethyl 6-(D-α-amino-p-fluorophenylacetamido)penicillanate] | 0.25 (≈ 0.517 µM) | 1.4 | 20.2 | –
6 | CC(C)OC(=O)OCOC(=O)[C@@H]1N2C(=O)[C@@H](NC(=O)[C@H](N)c3ccccc3)[C@H]2SC1(C)C [Example 19, Isopropoxycarbonyloxymethyl 6-(D-α-aminophenylacetamido)penicillanate] | 0.05 (≈ 0.107 µM) | 15.2 | 68.4 | –
7 | CCC(=O)OC(C)OC(=O)[C@@H]1N2C(=O)[C@@H](NC(=O)[C@H](N)c3ccccc3)[C@H]2SC1(C)C (stereo partly drawn) [Example 9, 1'-Propionyloxyethyl 6-(D-α-aminophenylacetamido) penicillanate] | 0.63 (≈ 1.4 µM) | 6.8 | 17.6 | –
8 | CC(=O)OC(C)OC(=O)[C@@H]1N2C(=O)[C@@H](NC(=O)[C@H](N)c3ccc(O)cc3)[C@H]2SC1(C)C (stereo partly drawn) [Example 27, 1'-Acetoxyethyl 6-(D-α-amino-p-hydroxyphenylacetamido)penicillanate] | 0.25 (≈ 0.554 µM) | 2.5 | 6.8 | –
9 | CC1(C)S[C@@H]2[C@H](NC(=O)[C@H](N)c3ccccc3)C(=O)N2[C@H]1C(=O)O [Ampicillin, 6-(D-α-aminophenylacetamido)penicillanic acid] | – | – | – | oral absorption [7]: orally absorbed relatively incompletely
10 | CCCOC(=O)OCOC(=O)[C@@H]1N2C(=O)[C@@H](NC(=O)[C@H](N)c3ccccc3)[C@H]2SC1(C)C [Example 18, Propoxycarbonyloxymethyl 6-(D-α-aminophenylacetamido) penicillanate] | 0.05 (≈ 0.107 µM) | 14.5 | 53.7 | –
11 | CC(=O)OC(C)OC(=O)[C@@H]1N2C(=O)[C@@H](NC(=O)[C@H](N)c3cccc(F)c3)[C@H]2SC1(C)C (stereo partly drawn) [Example 22, 1'-acetoxy-ethyl 6-(D-α-amino-m-fluorophenylacetamido) penicillanate] | 0.25 (≈ 0.551 µM) | 3.1 | 16.4 | –
12 | CCCCOC(=O)OCOC(=O)[C@@H]1N2C(=O)[C@@H](NC(=O)[C@H](N)c3ccccc3)[C@H]2SC1(C)C [Example 20, Butoxycarbonyloxymethyl 6-(D-α-aminophenylacetamido) penicillanate] | 0.05 (≈ 0.104 µM) | 13 | 41.1 | –
13 | CC(=O)OC(C)OC(=O)[C@@H]1N2C(=O)[C@@H](NC(=O)[C@H](N)c3ccccc3)[C@H]2SC1(C)C (stereo partly drawn) [Example 7, 1'-Acetoxyethyl 6-(D-α-aminophenylacetamido)penicillanate] | 0.32 (≈ 0.735 µM) | 7 | 17 | inhibited the growth of Staph. aureus Oxford at a concentration of ([1]; listed as Example 7b): 0.25 µg/mL; MIC [8]: 50 µg/mL (≈ 115 µM); MIC [9]: 50 µg/mL (≈ 115 µM); mean cumulative urinary excretion after 8 hours in percentage of the dose given [10]: 53.7 ± 4.9%
14 | CCOC(=O)OC(C)OC(=O)[C@@H]1N2C(=O)[C@@H](NC(=O)[C@H](N)c3ccccc3)[C@H]2SC1(C)C (stereo partly drawn) [Example 15, 1'-Ethoxycarbonyloxyethyl 6-(D-α-aminophenylacetamido) penicillanate] | 0.13 (≈ 0.279 µM) | 3.8 | 57.1 | MIC [11]: 0.13 µg/mL (≈ 0.279 µM); MIC [12]: 125 µg/mL (≈ 269 µM); mean cumulative urinary excretion after 8 hours in percentage of the dose given [10]: 53.4 ± 2.5%
15 | CC(=O)OC(C)OC(=O)[C@@H]1N2C(=O)[C@@H](NC(=O)C(N)c3ccc(Cl)cc3)[C@H]2SC1(C)C (stereo partly drawn) [Example 26, 1'-Acetoxyetyl 6-(α-amino-p-chlorophenylacetamido)penicillanate] | 0.63 (≈ 1.34 µM) | 10.8 | 15.6 | –
16 | CC(=O)OC(C)OC(=O)[C@@H]1N2C(=O)[C@@H](NC(=O)C(N)CCC(C)C)[C@H]2SC1(C)C (stereo partly drawn) [Example 5, 1'-Acetoxyethyl α-amino-δ-methylpentylpenicillinate] | 0.63 (≈ 1.47 µM) | 6 | 15.3 | –
17 | CCOC(=O)OC(C)OC(=O)[C@@H]1N2C(=O)[C@@H](NC(=O)[C@H](N)c3ccc(O)cc3)[C@H]2SC1(C)C (stereo partly drawn) [Example 28, 1'-Ethoxycarbonyloxyethyl 6-(D-α-amino-p-hydroxyphenylacetamido)penicillanate] | 0.25 (≈ 0.519 µM) | 5 | 33.1 | –
18 | CCOC(=O)OCOC(=O)[C@@H]1N2C(=O)[C@@H](NC(=O)[C@H](N)c3ccccc3)[C@H]2SC1(C)C [Example 17, Ethoxycarbonyloxymethyl 6-(D-α-aminophenylacetamido) penicillanate] | 0.05 (≈ 0.111 µM) | 13.3 | 64.7 | –
19 | CCOC(=O)NCOC(=O)[C@@H]1N2C(=O)[C@@H](NC(=O)[C@H](N)c3ccccc3)[C@H]2SC1(C)C [Ethylcarbamatomethylester, ethoxycarbonylaminomethyl 6-(D-α-aminophenylacetamido)penicillanate] | – | 7.1 | 15.2 | MIC [4]: 0.16 µg/mL (≈ 0.355 µM); MIC [5]: 12.5 µg/mL (≈ 27.7 µM); MIC [6]: 6.25 µg/mL (≈ 13.9 µM)
20 | CC(=O)OC(C)OC(=O)[C@@H]1N2C(=O)[C@@H](NC(=O)C(N)c3ccoc3)[C@H]2SC1(C)C (stereo partly drawn) [Example 29, 1'-Acetoxyethyl 6-(α-amino-3-furylacetamido)penicillanate] | 0.63 (≈ 1.48 µM) | 3.5 | 12.4 | –
21 | CCCCC(=O)OC(C)OC(=O)[C@@H]1N2C(=O)[C@@H](NC(=O)[C@H](N)c3ccccc3)[C@H]2SC1(C)C (stereo partly drawn) [10 --CH--OCOC4 H9, 1'-valeryloxy-ethyl 6-(D-α-aminophenylacetamido)penicillanate] | – | 4.9 | 14.3 | –
